What is called IC50 is the concentration needed to halve the response being measured.

Values joined by “and” are separate entries in the source; they are usually repeats but may differ in a detail not shown here. Equal values may be shown once. Some results are limits rather than exact numbers.

The record followed here is BindingDB's records for patent WO2022076495 (MERCK SHARP & DOHME CORP., 2022).

The target in the experiment is T1, Diacylglycerol O-acyltransferase 2 (Homo sapiens, UniProt Q96PD7).
T1 sequence (Q96PD7 whole entry): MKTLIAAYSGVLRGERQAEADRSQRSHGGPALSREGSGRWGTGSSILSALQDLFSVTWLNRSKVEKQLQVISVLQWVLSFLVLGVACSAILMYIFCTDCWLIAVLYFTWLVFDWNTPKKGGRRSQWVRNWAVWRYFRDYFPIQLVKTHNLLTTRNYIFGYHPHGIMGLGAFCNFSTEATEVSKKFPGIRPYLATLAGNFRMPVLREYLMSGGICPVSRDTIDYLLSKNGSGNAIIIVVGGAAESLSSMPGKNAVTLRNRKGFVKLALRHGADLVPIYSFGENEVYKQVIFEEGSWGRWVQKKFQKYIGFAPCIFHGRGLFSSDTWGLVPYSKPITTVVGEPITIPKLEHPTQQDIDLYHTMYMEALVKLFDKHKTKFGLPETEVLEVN
Kind of experiment: DGAT2 enzymatic activity assay. The protocol: DGAT2 activity was determined by measuring the amount of enzymatic product 13Ci8-triolein (13C-l,2,3-Tri(cis-9-octadecenoyl)glycerol) using the membrane prep mentioned above. The assay was carried out in ABgene 384-well assay plates in a final volume of 25 pL at rt. The assay mixture contained the following: assay buffer (100 mM Tris Cl, pH 7.0, 20 mM MgCl2, 5% ethanol), 25 pM of di olein, 5 μM of 13C oleoyl-CoA and 8 ng/pL of DGAT2 membrane.

As for `CC(C)n1c(=O)n(-c2cccc(OC(F)(F)C(F)(F)F)c2)c2ccc(C(=O)NC3(C)CS(=O)(=O)C3)cc21` [WO2022076495, EXAMPLE 7], it took 16 nM to reach half-maximal inhibition (IC50). In the case of `CC(C)n1c(=O)n(-c2cccc(OC(F)F)c2)c2ccc(C(=O)NC3(C)CS(=O)(=O)C3)cc21` [WO2022076495, EXAMPLE 12] it was 88 nM and 122 nM; in that of `CC(C)n1c(=O)n(-c2cc(OCC(F)F)ncc2F)c2ccc(C(=O)NC3(C)CCS(=O)(=O)CC3)cc21` [WO2022076495, EXAMPLE 15], 6.7 nM; in that of `CCOc1cc(-n2c(=O)n(C(C)C)c3cc(C(=O)NC4(C)CS(=O)(=O)C4)ccc32)c(F)cn1` [WO2022076495, EXAMPLE 16], 31 nM. As for `CC(C)n1c(=O)n(-c2cccc(OC(F)F)c2)c2cc(F)c(C(=O)NC3(C)CS(=O)(=O)C3)cc21` [WO2022076495, EXAMPLE 24], the half-inhibitory concentration (IC50) was 66 nM and 54 nM.

Turning to `CC(C)n1c(=O)n(-c2cccc(OC(F)F)c2)c2cc(F)c(C(=O)NC(C)C(C)(C)O)cc21` (stereo not drawn) [WO2022076495, EXAMPLE 27], the IC50 was greater than 10000 nM. The molecule `CC(C)n1c(=O)n(-c2cccc(OC(F)F)c2)c2cc(F)c(C(=O)N[C@H]3CCC[C@@H]3O)cc21` [WO2022076495, EXAMPLE 28] had an IC50 of 779 nM.

Regarding `CC(C)n1c(=O)n(-c2cccc(OC(F)F)c2)c2cc(F)c(C(=O)N[C@H]3CCOC[C@@H]3O)cc21` [WO2022076495, EXAMPLE 29], the IC50 was 1260 nM. Molecule `CC(C)n1c(=O)n(-c2cccc(OC(F)F)c2)c2cc(F)c(C(=O)N[C@H]3CCCC(F)(F)[C@H]3O)cc21` [WO2022076495, EXAMPLE 30] came in with an IC50 of 31 nM. The molecule `CC(C)n1c(=O)n(-c2cccc(OC(F)F)c2)c2cc(F)c(C(=O)N[C@@H]3CCCC[C@H]3O)cc21` [WO2022076495, EXAMPLE 31] returned an IC50 of 106 nM. `CC(C)n1c(=O)n(-c2cccc(OC(F)F)c2)c2cc(F)c(C(=O)N[C@H]3CCCC[C@@H]3O)cc21` [WO2022076495, EXAMPLE 35]: the IC50 is 71 nM. As for `CC1(NC(=O)c2cc3c(cc2F)n(-c2cccc(OC(F)F)c2)c(=O)n3C2CCOCC2)CS(=O)(=O)C1` [WO2022076495, EXAMPLE 36], the IC50 was found to be 19 nM. The result for `CCn1c(=O)n(-c2cccc(OC(F)F)c2)c2cc(F)c(C(=O)NC3(C)CS(=O)(=O)C3)cc21` [WO2022076495, EXAMPLE 40] reads 194 nM; that for `CC1(NC(=O)c2cc3c(cc2F)n(-c2cccc(OC(F)F)c2)c(=O)n3CC(F)(F)F)CS(=O)(=O)C1` [WO2022076495, EXAMPLE 43], 202 nM; that for `C[C@H](C(F)F)n1c(=O)n(-c2cccc(OC(F)F)c2)c2ccc(C(=O)NC3(C)CCS(=O)(=O)CC3)cc21` [WO2022076495, EXAMPLE 45a], 12 nM. In the case of `C[C@@H](C(F)F)n1c(=O)n(-c2cccc(OC(F)F)c2)c2ccc(C(=O)NC3(C)CCS(=O)(=O)CC3)cc21` [WO2022076495, EXAMPLE 45b] it was 101 nM; in that of `CC[C@@H](C)n1c(=O)n(-c2cccc(OC(F)F)c2)c2ccc(C(=O)NC3(C)CS(=O)(=O)C3)cc21` [WO2022076495, EXAMPLE 46a], 81 nM. The molecule `CC[C@H](C)n1c(=O)n(-c2cccc(OC(F)F)c2)c2ccc(C(=O)NC3(C)CS(=O)(=O)C3)cc21` [WO2022076495, EXAMPLE 46b] yielded an IC50 of 92 nM. In the case of `CC(C)n1c(=O)n(-c2cccc(OC(F)F)c2)c2ccc(C(=O)NCC3(O)CCOC3)cc21` (stereo not drawn) [WO2022076495, EXAMPLE 62] it was greater than 9990 nM; in that of `CC(C)(O)Cn1c(=O)n(-c2cccc(OC(F)F)c2)c2ccc(C(=O)NC3(C)CS(=O)(=O)C3)cc21` [WO2022076495, EXAMPLE 64], 37 nM; in that of `CC(n1c(=O)n(-c2cc(OC(F)F)ccc2F)c2ccc(C(=O)NC3(C)CS(=O)(=O)C3)cc21)C(C)(C)O` (stereo not drawn) [WO2022076495, EXAMPLE 65], 0.7 nM. In the case of `C[C@H](n1c(=O)n(-c2cc(OC(F)F)ccc2F)c2ccc(C(=O)NC3(C)CCS(=O)(=O)CC3)cc21)C(C)(C)O` [WO2022076495, EXAMPLE 66a], the concentration for half-maximal inhibition (IC50) is 1.1 nM. Against the preceding molecule, the IC50 is about 1.6-fold higher.

Take `C[C@@H](n1c(=O)n(-c2cc(OC(F)F)ccc2F)c2ccc(C(=O)NC3(C)CCS(=O)(=O)CC3)cc21)C(C)(C)O` [WO2022076495, EXAMPLE 66b]: the IC50 is 17 nM. In the case of `C[C@H](n1c(=O)n(-c2cccc(OC(F)F)c2)c2ccc(C(=O)NC3(C)CCS(=O)(=O)CC3)cc21)C(C)(C)O` [WO2022076495, EXAMPLE 67a] it was 1.6 nM; in that of `C[C@@H](n1c(=O)n(-c2cccc(OC(F)F)c2)c2ccc(C(=O)NC3(C)CCS(=O)(=O)CC3)cc21)C(C)(C)O` [WO2022076495, EXAMPLE 67b], 211 nM; in that of `C[C@H](n1c(=O)n(-c2cccc(OCC(F)F)c2)c2ccc(C(=O)NC3(C)CCS(=O)(=O)CC3)cc21)C(C)(C)O` [WO2022076495, EXAMPLE 68a], 4.1 nM. As for `C[C@@H](n1c(=O)n(-c2cccc(OCC(F)F)c2)c2ccc(C(=O)NC3(C)CCS(=O)(=O)CC3)cc21)C(C)(C)O` [WO2022076495, EXAMPLE 68b], half-maximal inhibition (IC50) was put at 1.8 nM. In turn, `CCOc1cc(-n2c(=O)n([C@@H](C)C(C)(C)O)c3cc(C(=O)NC4(C)CCS(=O)(=O)CC4)ccc32)c(F)cn1` [WO2022076495, EXAMPLE 69a] registered a 50% inhibitory concentration (IC50) of 9.7 nM. Against the preceding molecule, the IC50 is about 5.4-fold higher. In the case of `CCOc1cc(-n2c(=O)n([C@H](C)C(C)(C)O)c3cc(C(=O)NC4(C)CCS(=O)(=O)CC4)ccc32)c(F)cn1` [WO2022076495, EXAMPLE 69b], the midpoint of inhibition, the IC50, lay at 3.9 nM. `C[C@H](n1c(=O)n(-c2cc(OC(F)(F)F)ccc2F)c2cc(F)c(C(=O)NC3(C)CCS(=O)(=O)CC3)cc21)C(C)(C)O` [WO2022076495, EXAMPLE 70a]: half-maximal inhibition (IC50) required 1 nM. With `C[C@@H](n1c(=O)n(-c2cc(OC(F)(F)F)ccc2F)c2cc(F)c(C(=O)NC3(C)CCS(=O)(=O)CC3)cc21)C(C)(C)O` [WO2022076495, EXAMPLE 70b], the concentration for half-maximal inhibition (IC50) is 30 nM. `C[C@H](n1c(=O)n(-c2cc(OC(F)(F)F)ccc2F)c2ccc(C(=O)NC3(C)CCS(=O)(=O)CC3)cc21)C(C)(C)O` [WO2022076495, EXAMPLE 71a] returned an IC50 of 71 nM. The result for `C[C@@H](n1c(=O)n(-c2cc(OC(F)(F)F)ccc2F)c2ccc(C(=O)NC3(C)CCS(=O)(=O)CC3)cc21)C(C)(C)O` [WO2022076495, EXAMPLE 71b] reads 5.4 nM; that for `C[C@H](n1c(=O)n(-c2cc(OCC(F)F)ncc2F)c2ccc(C(=O)NC3(C)CCS(=O)(=O)CC3)cc21)C(C)(C)O` [WO2022076495, EXAMPLE 72a], 6.4 nM; that for `C[C@@H](n1c(=O)n(-c2cc(OCC(F)F)ncc2F)c2ccc(C(=O)NC3(C)CCS(=O)(=O)CC3)cc21)C(C)(C)O` [WO2022076495, EXAMPLE 72b], 6.6 nM.

Turning to `C[C@H](n1c(=O)n(-c2cc(OCC(F)F)ccc2F)c2ccc(C(=O)NC3(C)CCS(=O)(=O)CC3)cc21)C(C)(C)O` [WO2022076495, EXAMPLE 73a], the IC50 was 2.6 nM. The result for `C[C@@H](n1c(=O)n(-c2cc(OCC(F)F)ccc2F)c2ccc(C(=O)NC3(C)CCS(=O)(=O)CC3)cc21)C(C)(C)O` [WO2022076495, EXAMPLE 73b] reads 3.3 nM; that for `C[C@H](n1c(=O)n(-c2cc(OCC(F)F)ncc2F)c2cc(F)c(C(=O)NC3(C)CCS(=O)(=O)CC3)cc21)C(C)(C)O` [WO2022076495, EXAMPLE 74a], 6.1 nM; that for `C[C@@H](n1c(=O)n(-c2cc(OCC(F)F)ncc2F)c2cc(F)c(C(=O)NC3(C)CCS(=O)(=O)CC3)cc21)C(C)(C)O` [WO2022076495, EXAMPLE 74b], 6.5 nM. Regarding `C[C@H](n1c(=O)n(-c2cc(OCC(F)F)ccc2F)c2cc(F)c(C(=O)NC3(C)CCS(=O)(=O)CC3)cc21)C(C)(C)O` [WO2022076495, EXAMPLE 75a], half-maximal inhibition (IC50) was put at 1.5 nM. In the case of `C[C@@H](n1c(=O)n(-c2cc(OCC(F)F)ccc2F)c2cc(F)c(C(=O)NC3(C)CCS(=O)(=O)CC3)cc21)C(C)(C)O` [WO2022076495, EXAMPLE 75b] it was 2.4 nM; in that of `C[C@@H](n1c(=O)n(-c2cccc(OC(F)(F)C(F)F)c2)c2ccc(C(=O)NC3(C)CS(=O)(=O)C3)cc21)C(C)(C)O` [WO2022076495, EXAMPLE 76a], 80 nM; in that of `C[C@H](n1c(=O)n(-c2cccc(OC(F)(F)C(F)F)c2)c2ccc(C(=O)NC3(C)CS(=O)(=O)C3)cc21)C(C)(C)O` [WO2022076495, EXAMPLE 76b], 7.9 nM. `C[C@H](n1c(=O)n(-c2cccc(OC(F)(F)C(F)F)c2)c2cc(F)c(C(=O)NC3(C)CCS(=O)(=O)CC3)cc21)C(C)(C)O` [WO2022076495, EXAMPLE 77a] registered an IC50 of 5.6 nM. In turn, `C[C@@H](n1c(=O)n(-c2cccc(OC(F)(F)C(F)F)c2)c2cc(F)c(C(=O)NC3(C)CCS(=O)(=O)CC3)cc21)C(C)(C)O` [WO2022076495, EXAMPLE 77b] yielded an IC50 of 9.8 nM. Compared with the last molecule, the IC50 is about 1.8-fold higher. Regarding `CCOc1cc(-n2c(=O)n([C@H](C)C(C)(C)O)c3cc(C(=O)NC4(C)CS(=O)(=O)C4)ccc32)c(F)cn1` [WO2022076495, EXAMPLE 78a], it took 123 nM to reach half-maximal inhibition (IC50). In the case of `CCOc1cc(-n2c(=O)n([C@@H](C)C(C)(C)O)c3cc(C(=O)NC4(C)CS(=O)(=O)C4)ccc32)c(F)cn1` [WO2022076495, EXAMPLE 78b] it was 13 nM; in that of `CC1(NC(=O)c2ccc3c(c2)n(S(=O)(=O)c2ccccc2)c(=O)n3-c2cccc(OC(F)F)c2)CCS(=O)(=O)CC1` [WO2022076495, EXAMPLE 86], greater than 9990 nM.
